Laboratory results as given in patent US12686668B2, “Leukotriene synthesis inhibitors” (Naegis Pharmaceuticals Inc., priority 2019, dated 2026).

What was measured:
Type in all cases: cell-based
[1] = tested on: LTC4 production in MC/9 cells; test: MC/9 HPLC assay, inhibition of LTC4 production; settings: Mus musculus; for inhibition at 1 µM: MC9, Table 2 column 3, no concentration in head (1 μM according to b732), read-out: % Inhibition LTC4; for inhibition at 3 µM: MC9, 3 μM, A23187 stimulated
Method: (§1) Cultured MC/9 cells (3×10^6 cells) in 1 mL HBSS were pre-incubated with a series of concentrations of compound solubilized in DMSO for 30 minutes. Production of leukotrienes were stimulated with the addition of 1 μM calcium ionophore (A23187), diluted from a 4 mM DMSO stock in HBSS, and incubated at room temperature for 20 minutes. The reaction was stopped with the addition of 500 μL of methanol containing 20 ng/mL prostaglandin B2 as an internal standard. Samples were collected and stored at −20° C. at least 2 hr or overnight before centrifuged at 13,000 rpm for 15 minutes and loaded onto C18 SEP-PAK columns (Canadian Lifesciences IS12000) for solid phase extraction. The leukotrienes were analyzed by HPLC using an ACE C18 column (4.5 mm×150 mm, 5 m) eluted with acetonitrile/methanol/water mixture with H3PO4, pH 3.5 (37:26:37) with a flow rate of 1.8 mL/min. The amount of LTB4 (Cayman Chemical, 20110) and LTC4 (Cayman Chemical, 20210) were calculated based on reference standards and the level of inhibition of LTB4 production induced by the test compounds was calculated relative to control samples. The results are provided in Table 2, where Compound No. refers to the compounds identified in Table 1.

[2] = tested on: LTB4 production in MC/9 cells; test: MC/9 HPLC assay, inhibition of LTB4 production; settings: Mus musculus, MC9, Table 2 column 4, no concentration in head (1 μM according to b732), read-out: % Inhibition LTB4
Method: as §1

[3] = tested on: LTB4 production in porcine or human whole blood; test: Whole blood HPLC assay, inhibition of LTB4 production; settings: 5 point curve, porcine or human whole blood (not specified)
Method: Porcine or human whole blood (1 mL) was pre-incubated with a series of concentrations of compound solubilized in DMSO for 30 minutes. Production of leukotrienes were stimulated with the addition of 20 μM calcium ionophore (A23187), diluted from a 4 mM DMSO stock in HBSS, and incubated at room temperature for 20 minutes. In porcine blood 20 μM arachidonic acid was added in addition to the calcium ionophore. The blood was centrifuged at 2,000 rpm for 15 minutes, and the plasma fraction removed for further processing. Plasma samples were diluted with 500 μL acidified water (HCl pH 3.0) and loaded onto C18 SEP-PAK columns (Canadian Lifesciences IS12000) for solid phase extraction. The leukotrienes were analyzed by HPLC using an ACE C18 column (4.5 mm×150 mm, 5 m) eluted with acetonitrile/methanol/water mixture with H3PO4, pH 3.5 (37:26:37) with a flow rate of 1.8 mL/min. The amount of LTB4 (Cayman Chemical, 20110) was calculated based on reference standards and the level of inhibition of LTB4 production induced by the test compounds was calculated relative to control samples. The results provided in Table 3 are IC50 values calculated based on a 5 point curve, where Compound No. refers to the compounds identified in Table 1.

Compound	IC50 [3]	inhibition at 1 µM [1]	inhibition at 1 µM [2]	inhibition at 3 µM [1]
CC(O)CCc1ccc(Oc2nc3ccccc3s2)cc1 (stereo not drawn) [Compound 141, 4-[4-(1,3-benzothiazol-2-yloxy)phenyl]butan-2-ol]	1 to 10 µM	10 to 30%	> 90%	–
CCC(O)(CCc1ccc(Oc2nc3c(F)cc(F)cc3s2)c(OC)c1)C(F)(F)F (stereo not drawn) [Compound 107, 1-{4-[(4,6-difluoro-1,3-benzothiazol-2-yl)oxy]-3-methoxyphenyl}-3-(trifluoromethyl)pentan-3-ol]	> 10 µM	70 to 90%	> 90%	> 90%
CC(CCc1ccc(Oc2nc3ccccc3s2)cc1)N1CCCC1C(=O)O (stereo not drawn) [Compound 157, 1-{4-[4-(1,3-benzothiazol-2-yloxy)phenyl]butan-2-yl}pyrrolidine-2-carboxylic acid]	1 to 10 µM	< 10%	70 to 90%	–
CCC(O)(CCc1ccc(Oc2nc3ccc(S(C)(=O)=O)cc3s2)c(OC)c1)C(F)(F)F (stereo not drawn) [Compound 106, 1-{3-methoxy-4-[(6-methylsulfonyl-1,3-benzothiazol-2-yl)oxy]phenyl}-3-(trifluoromethyl)pentan-3-ol]	> 10 µM	10 to 30%	10 to 30%	30 to 50%

Further lines, with some results ahead:

IC50 [3]	Compound	inhibition at 1 µM [1]	inhibition at 1 µM [2]	inhibition at 3 µM [1]
> 10 µM	COc1cc(CCC(O)c2ccccc2)ccc1Oc1nc2ccccc2s1 (stereo not drawn) [Compound 132, 3-[4-(1,3-benzothiazol-2-yloxy)-3-methoxyphenyl]-1-phenylpropan-1-ol]	70 to 90%	> 90%	–
> 10 µM	CCC(O)(CCc1ccc(Oc2nc3ccccc3s2)c(OCC2CC2)c1)C(F)(F)F (stereo not drawn) [Compound 117, 1-[4-(1,3-benzothiazol-2-yloxy)-3-(cyclopropyl-methoxy)-phenyl]-3-(trifluoromethyl)-pentan-3-ol]	30 to 50%	70 to 90%	–
> 10 µM	COc1cc(C(O)C(F)(F)F)ccc1Oc1nc2ccccc2s1 (stereo not drawn) [Compound 137, 1-[4-(1,3-benzothiazol-2-yloxy)-3-methoxyphenyl]-2,2,2-trifluoroethanol]	–	10 to 30%	50 to 70%
1 to 10 µM	CCNC(c1ccc(Oc2nc3ccccc3s2)c(OC)c1)C(F)(F)F (stereo not drawn) [Compound 138, 1-[4-(1,3-benzothiazol-2-yloxy)-3-methoxyphenyl]-N-ethyl-2,2,2-trifluoroethanamine]	30 to 50%	10 to 30%	70 to 90%
